≈ marks a conversion by molar mass, not a printed value.

Data set [1] can be described thus: Aqueous solubility (background statement). The data set is classed as physicochemical. The following applies: qualitative statement in Background.
Data set [2] deals with HIV reverse transcriptase (Human immunodeficiency virus type 1 group M subtype B, UniProt P03366). The following applies: qualitative statement in Background; cited from earlier work.
The nature of data set [3]: Oral bioavailability in pharmacokinetic studies in animals. It is filed as in vivo. The following applies: qualitative.
Data set [4] can be described thus: Water solubility at room temperature (excess solid stirred in deionized water, HPLC). The following applies: thermodynamic from solid; for solubility at 24 h: deionized water.
Procedure: A stir bar was then placed in the tube and the tube placed on a multi-position stirrer plate. […] The solubility of each compound was determined via HPLC, wherein a portion of the supernatant was removed from the tube, diluted with ACN:water (50:50 by volume) as necessary to achieve a suitable concentration for analysis, and then analyzed by HPLC against a standard (=a solution of the K salt of Example 1 in ACN:water 50:50 by volume). One determination was made for each compound.
HPLC: column=Agilent Zorbax Eclipse (4.6×50 mm, 1.8 micron); mobile phase=0.1% H3PO4:ACN; gradient=90% to 10% H3PO4; flow rate=1.5 mL/minute; column temperature=45° C.; injection volume=25 μL; UV sampling with detection wavelength=210 nm; run time=15 minutes.

Regarding `N#Cc1cc(Cl)cc(Oc2c(Cl)ccn(Cc3n[nH]c4ncccc34)c2=O)c1` [Compound B, 3-chloro-5-{[4-chloro-2-oxo-1-(1H-pyrazolo[3,4-b]pyridin-3-ylmethyl)-1,2-dihydropyridin-3-yl]oxy}benzonitrile], the aqueous solubility result in data set [1] was “relatively low”. Further, the “non-nucleoside reverse transcriptase inhibition” value in data set [2] is listed as “potent”.
By solubility is commonly meant the dissolved amount per volume that the medium holds. Low values mean little dissolved substance, high ones much dissolved substance. With `N#Cc1cc(Cl)cc(Oc2c(C(F)(F)F)ccn(Cc3n[nH]c4ncccc34)c2=O)c1` [Compound A, 3-chloro-5-{[2-oxo-1-(1H-pyrazolo[3,4-b]pyridin-3-ylmethyl)-4-(trifluoromethyl)-1,2-dihydropyridin-3-yl]oxy}benzonitrile], the oral bioavailability result in data set [3] is on record as “relatively low”. Besides, in data set [4], the solubility at 24 h is 0.2 µg/mL (≈ 0.449 µM). Also, the aqueous solubility entry in data set [1] is given as “relatively low”. Also, the “non-nucleoside reverse transcriptase inhibition” value in data set [2] is reported as “potent”.
In data set [4], `N#Cc1cc(Cl)cc(Oc2c(C(F)(F)F)ccn(Cc3nn(COP(=O)([O-])O)c4ncccc34)c2=O)c1.O.[K+]` [Example 1, Potassium (3-{[3-(3-chloro-5-cyanophenoxy)-2-oxo-4-(trifluoromethyl)pyridin-1(2H)-yl]methyl}-1H-pyrazolo[3,4-b]pyridin-1-yl)methyl hydrogen phosphate monohydrate] showed a solubility at 4 h of 12000 µg/mL.
As to `CN(CCN)C(=O)n1nc(Cn2ccc(C(F)(F)F)c(Oc3cc(Cl)cc(C#N)c3)c2=O)c2cccnc21.O=S(=O)(O)c1ccccc1` [Example 9, N-(2-Aminoethyl)-3-{[3-(3-chloro-5-cyanophenoxy)-2-oxo-4-(trifluoromethyl)pyridin-1(2H)-yl]methyl}-N-methyl-1H-pyrazolo[3,4-b]pyridine-1-carboxamide benzenesulfonate], the solubility at 24 h in data set [4] amounted to 1100 µg/mL.

Values taken from US20130040914A1, “PRODRUGS OF AN HIV REVERSE TRANSCRIPTASE INHIBITOR” (priority 2010, published 2013).
